Data taken from PMC12271471, “Direct synthesis of mycophenolic acid aryl esters with antioxidant and antiproliferative properties” (Scientific Reports, 2025).

Test system: AsPC-1 cells (human pancreatic cancer cells)
Assay: MTT cytotoxicity assay on AsPC-1 cell line
Assay type: cell-based
Conditions: ASPC1, 72 h treatment, n = 3, mean ± SD
Procedure: Table 2 presents the concentration of the tested compounds, namely: P4, P7, MP9, MPA, MMF, and gemcitabine (GEM; a standard), which inhibited the proliferation of AsPC-1 cells (human pancreatic cancer cells) by 50% (expressed as IC50 values) compared to the control. Cells were treated with compounds for 72 h and then a colorimetric MTT assay was performed. A graphical representation of these values can be seen in ESI Fig. S1.
Biological evaluation — AsPC-1 cell line
AsPC-1 pancreatic cancer cells (purchased from the American Type Culture Collection, ATCC, Manassas, VA, USA) were maintained in RPMI 1640 medium (Sigma-Aldrich, St Louis, MO, USA), supplemented with heat-inactivated 10% fetal bovine serum (FBS; Biowest, Riverside, MO, USA), 100 µg/mL streptomycin, and 100 units/mL penicillin. Cells were incubated in a humidified atmosphere of 5% CO2 at 37°C. All experiments were performed on cells in a logarithmic growth phase.
To investigate the effect of the tested compounds on cell viability, a colorimetric analysis was performed using MTT (3-(4,5-Dimethyl-2-thiazolyl)-2,5-diphenyl-2H-tetrazolium bromide, Sigma-Aldrich, St Louis, MO, USA) based on the reduction of this yellow salt in metabolically active cells to purple formazan crystals. Cells were seeded onto 96-well plates at 2∙10^3 cells/well and after 24 h incubation for cell attachment, cells were treated with various concentrations of tested compounds and gemcitabine (positive control) up to 50 µM. After 72 hours of incubation, 20 µL MTT at a concentration of 4 mg/mL was added to each well for 3-4 hours. The culture medium was then aspirated and formazan crystals were dissolved in DMSO. The absorbance of the solutions was measured at 540 nm using an iMark Microplate Absorbance Reader (Bio-Rad, Hercules, CA, USA). The drug concentrations required to inhibit cell growth by 50% (IC50) compared to untreated control cells were determined from curves plotting survival as a function of dose. Results were obtained from at least three independent […]
Statistical analysis of MTT cytotoxicity assay results was performed using GraphPad Prism 5.0 by two-tailed unpaired Student’s t-test. Differences p < 0.05 between MPA and its derivatives and gemcitabine were considered statistically significant according to the following criteria: * p < 0.05, ** p <

SMILES	IC50 [µM]
COc1c(C)c2c(c(O)c1C/C=C(\C)CCC(=O)OCCN1CCOCC1)C(=O)OC2 [MMF, mycophenolate mofetil, reference compound]	2.03 ± 0.042
C/C=C/c1ccc(OC(=O)CC/C(C)=C/Cc2c(O)c3c(c(C)c2OC)COC3=O)c(OC)c1 [MP9]	3.81
COc1c(C)c2c(c(O)c1C/C=C(\C)CCC(=O)O)C(=O)OC2 [MPA, Mycophenolic acid]	1.74 ± 0.259
COC(=O)/C=C/c1ccccc1OC(=O)CC/C(C)=C/Cc1c(O)c2c(c(C)c1OC)COC2=O [P4]	2.87
COc1c(C)c2c(c(O)c1C/C=C(\C)CCC(=O)Oc1ccc(CCC(C)=O)cc1)C(=O)OC2 [P7]	2.45
